Where two headings read alike, the source gives them in different places.
Tests used:
[1] = target: T1, CYP2C19 (Homo sapiens, UniProt P33261); assay: Effect of voxelotor on PK of CYP2C19 probe substrate omeprazole in healthy subjects; assay type: in vivo
T1 construct: endogenous in cells; host or cells: healthy subjects, in vivo
Description: During Period 1, subjects received a single dose of caffeine 100 mg, warfarin sodium 10 mg+vitamin K 10 mg, omeprazole 20 mg, and midazolam hydrochloride 2 mg on Day 1. During Period 2, subjects received voxelotor 900 mg QD on Days 1 and 2 followed by 600 mg QD on Day 3, a single dose of caffeine 100 mg, warfarin sodium 10 mg+vitamin K 10 mg, omeprazole 20 mg, and midazolam hydrochloride 2 mg on Day 4, and voxelotor 600 mg QD on Days 4 through 7.
Whole blood and plasma concentrations of voxelotor and plasma concentrations of caffeine, paraxanthine, S-warfarin, omeprazole, 5-hydroxyomeprazole, midazolam, and 1-hydroxymidazolam were determined using validated assays.

[2] = Voxelotor in milk of lactating rats; assay type: in vivo, rat
Text: There are no data on the presence of voxelotor in human milk, the effects on the breastfed child, or the effects on milk production. […] Plasma concentrations of voxelotor in pregnant rats were higher than the concentration in milk. When a drug is present in animal milk, it is likely that the drug will be present in human milk. […] Because of the potential for serious adverse reactions in the breastfed child, including changes in the hematopoietic system, advise patients that breastfeeding is not recommended during treatment with OXBRYTA, and for at least 2 weeks after the last dose.

[3] = system: QT interval; assay: Cardiac electrophysiology; assay type: in vivo; settings: plasma concentrations approximately 2-fold above therapeutic concentrations
[4] = Clinical pharmacokinetics of voxelotor in plasma, whole blood and RBCs; assay type: in vivo, human; settings: for AUC(0-t): read-out: AUC0-24h, Geometric Mean (% CV); for Cmax: read-out: Cmax, Geometric Mean (% CV)
Text: Voxelotor is absorbed into plasma and is then distributed predominantly into RBCs due to its preferential binding to Hb. The major route of elimination of voxelotor is by metabolism with subsequent excretion of metabolites into urine and feces. The PK are linear and voxelotor exposures increased proportionally with either single or multiple doses (Table 3) in whole blood, plasma, and RBCs. Steady-state after repeated administration is reached within 8 days and exposures of voxelotor are consistent with accumulation predicted based on single dose data in patients with SCD.
The median plasma and whole blood Tmax of voxelotor after oral administration is 2 hours. The mean peak concentrations in whole blood and RBCs are observed between 6 and 18 hours after oral administration.
(§1) Voxelotor apparent volume of distribution of the central compartment and peripheral compartment are 338 L and 72.2 L in plasma, respectively. Protein binding is 99.8% in vitro. The blood-to-plasma ratio is approximately 15:1 in patients with SCD.

[5] = Protein binding in vitro; assay type: in vitro ADME
Text: as §1

[6] = target: CYP3A4 (Homo sapiens, UniProt P08684); assay: Metabolism (in vitro and in vivo studies); assay type: in vitro ADME; settings: minor contribution from CYP2C19, CYP2B6 and CYP2C9
Chain of CYP3A4 (P08684 whole entry): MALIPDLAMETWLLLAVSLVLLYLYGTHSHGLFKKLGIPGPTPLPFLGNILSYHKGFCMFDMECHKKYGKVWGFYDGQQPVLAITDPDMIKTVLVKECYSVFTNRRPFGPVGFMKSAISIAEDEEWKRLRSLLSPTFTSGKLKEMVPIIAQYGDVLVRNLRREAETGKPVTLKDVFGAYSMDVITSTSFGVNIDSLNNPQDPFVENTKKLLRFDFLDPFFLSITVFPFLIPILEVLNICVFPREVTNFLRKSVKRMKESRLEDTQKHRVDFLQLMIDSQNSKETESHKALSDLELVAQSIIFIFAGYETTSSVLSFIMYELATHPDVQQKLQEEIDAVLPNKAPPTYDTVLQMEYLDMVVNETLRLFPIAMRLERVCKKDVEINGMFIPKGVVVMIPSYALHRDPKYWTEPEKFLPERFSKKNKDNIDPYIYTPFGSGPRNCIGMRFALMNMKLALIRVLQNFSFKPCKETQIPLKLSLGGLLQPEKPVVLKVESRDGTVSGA
Text: In vitro and in vivo studies indicate that voxelotor is extensively metabolized through Phase I (oxidation and reduction), Phase II (glucuronidation) and combinations of Phase I and II metabolism.

[7] = Excretion after administration of radiolabeled voxelotor; assay type: in vivo
Text: Following the administration of radiolabeled voxelotor, approximately 62.6% of the dose and its metabolites are excreted into feces (33.3% unchanged) and 35.5% in urine (0.08% unchanged).

[8] = PK in patients with HbSC genotype vs HbSS genotype; settings: human, in vivo
[9] = target: BCRP (Homo sapiens, UniProt Q9UNQ0); assay: In vitro transporter studies: BCRP; assay type: in vitro ADME
Chain of BCRP (Q9UNQ0 whole entry): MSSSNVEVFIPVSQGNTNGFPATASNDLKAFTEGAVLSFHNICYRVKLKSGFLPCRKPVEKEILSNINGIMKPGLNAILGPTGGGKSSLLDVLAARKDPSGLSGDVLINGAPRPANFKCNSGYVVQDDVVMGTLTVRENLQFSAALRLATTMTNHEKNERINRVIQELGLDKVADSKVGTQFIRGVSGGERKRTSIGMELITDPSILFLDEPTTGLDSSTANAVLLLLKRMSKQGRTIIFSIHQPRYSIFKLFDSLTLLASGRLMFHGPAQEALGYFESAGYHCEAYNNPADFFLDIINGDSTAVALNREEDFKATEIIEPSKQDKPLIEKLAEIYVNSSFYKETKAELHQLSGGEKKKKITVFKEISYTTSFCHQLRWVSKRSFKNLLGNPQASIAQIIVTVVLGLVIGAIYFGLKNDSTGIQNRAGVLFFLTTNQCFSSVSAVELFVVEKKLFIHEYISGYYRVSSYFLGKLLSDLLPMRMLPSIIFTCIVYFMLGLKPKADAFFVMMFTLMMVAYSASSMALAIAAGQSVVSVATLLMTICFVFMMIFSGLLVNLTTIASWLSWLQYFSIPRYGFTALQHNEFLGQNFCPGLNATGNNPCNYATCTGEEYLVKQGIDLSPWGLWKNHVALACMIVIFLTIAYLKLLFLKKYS

[10] = target: OAT1 (Homo sapiens, UniProt Q4U2R8); assay: In vitro transporter studies: OAT1; assay type: in vitro ADME
Chain of OAT1 (Q4U2R8 whole entry): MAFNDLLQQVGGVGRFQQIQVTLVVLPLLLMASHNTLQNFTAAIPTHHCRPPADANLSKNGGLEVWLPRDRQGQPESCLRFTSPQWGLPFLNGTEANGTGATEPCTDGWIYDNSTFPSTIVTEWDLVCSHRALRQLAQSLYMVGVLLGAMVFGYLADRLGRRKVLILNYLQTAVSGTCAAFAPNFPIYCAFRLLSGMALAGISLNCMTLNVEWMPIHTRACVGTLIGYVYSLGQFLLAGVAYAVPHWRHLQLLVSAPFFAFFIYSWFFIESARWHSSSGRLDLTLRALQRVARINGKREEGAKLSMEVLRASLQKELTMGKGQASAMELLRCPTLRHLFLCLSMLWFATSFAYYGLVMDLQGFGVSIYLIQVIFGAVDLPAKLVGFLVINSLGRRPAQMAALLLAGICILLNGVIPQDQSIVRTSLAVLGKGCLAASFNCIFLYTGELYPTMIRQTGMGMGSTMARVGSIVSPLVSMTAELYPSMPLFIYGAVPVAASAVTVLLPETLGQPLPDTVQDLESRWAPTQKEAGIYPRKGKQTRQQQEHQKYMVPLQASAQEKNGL

[11] = target: MATE1 (Homo sapiens, UniProt Q96FL8); assay: In vitro transporter studies: MATE1; assay type: in vitro ADME
[12] = target: MATE2-K (Homo sapiens, UniProt Q86VL8); assay: In vitro transporter studies: MATE2-K; assay type: in vitro ADME
[13] = target: BSEP (Homo sapiens, UniProt O95342); assay: In vitro transporter studies: BSEP; assay type: in vitro ADME
Chain of BSEP (O95342 whole entry): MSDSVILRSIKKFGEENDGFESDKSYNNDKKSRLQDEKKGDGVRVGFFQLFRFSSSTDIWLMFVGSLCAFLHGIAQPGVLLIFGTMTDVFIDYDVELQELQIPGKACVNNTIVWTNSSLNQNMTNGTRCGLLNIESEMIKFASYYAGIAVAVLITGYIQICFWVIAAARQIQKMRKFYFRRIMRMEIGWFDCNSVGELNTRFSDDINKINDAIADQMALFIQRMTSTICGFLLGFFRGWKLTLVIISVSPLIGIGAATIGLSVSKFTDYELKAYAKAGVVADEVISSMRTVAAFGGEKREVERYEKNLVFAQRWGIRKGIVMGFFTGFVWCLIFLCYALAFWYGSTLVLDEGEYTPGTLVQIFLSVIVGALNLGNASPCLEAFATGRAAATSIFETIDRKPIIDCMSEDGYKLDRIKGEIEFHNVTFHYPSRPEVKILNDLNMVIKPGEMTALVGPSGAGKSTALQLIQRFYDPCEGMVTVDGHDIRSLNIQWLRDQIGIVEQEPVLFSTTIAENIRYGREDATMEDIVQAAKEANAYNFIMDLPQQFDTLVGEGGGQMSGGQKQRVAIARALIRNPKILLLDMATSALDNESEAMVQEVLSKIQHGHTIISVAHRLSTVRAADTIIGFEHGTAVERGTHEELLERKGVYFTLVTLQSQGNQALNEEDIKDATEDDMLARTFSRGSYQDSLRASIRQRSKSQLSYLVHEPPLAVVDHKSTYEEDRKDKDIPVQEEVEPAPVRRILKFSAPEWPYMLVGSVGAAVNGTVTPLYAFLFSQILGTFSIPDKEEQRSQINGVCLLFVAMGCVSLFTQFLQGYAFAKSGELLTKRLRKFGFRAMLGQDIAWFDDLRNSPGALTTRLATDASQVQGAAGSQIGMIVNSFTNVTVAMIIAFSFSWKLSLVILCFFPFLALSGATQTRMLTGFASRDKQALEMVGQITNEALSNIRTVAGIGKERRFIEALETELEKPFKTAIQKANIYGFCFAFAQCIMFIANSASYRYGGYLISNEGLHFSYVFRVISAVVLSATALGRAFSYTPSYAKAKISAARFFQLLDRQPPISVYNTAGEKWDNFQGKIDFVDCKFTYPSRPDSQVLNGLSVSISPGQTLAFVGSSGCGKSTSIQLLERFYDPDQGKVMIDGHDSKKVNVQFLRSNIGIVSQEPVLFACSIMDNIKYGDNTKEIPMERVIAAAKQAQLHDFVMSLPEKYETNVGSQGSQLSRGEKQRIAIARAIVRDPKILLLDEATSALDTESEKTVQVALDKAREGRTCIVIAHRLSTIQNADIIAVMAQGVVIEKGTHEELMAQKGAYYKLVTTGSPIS

[14] = target: OATP1A2 (Homo sapiens, UniProt P46721); assay: In vitro transporter studies: OATP1A2; assay type: in vitro ADME
Chain of OATP1A2 (P46721 whole entry): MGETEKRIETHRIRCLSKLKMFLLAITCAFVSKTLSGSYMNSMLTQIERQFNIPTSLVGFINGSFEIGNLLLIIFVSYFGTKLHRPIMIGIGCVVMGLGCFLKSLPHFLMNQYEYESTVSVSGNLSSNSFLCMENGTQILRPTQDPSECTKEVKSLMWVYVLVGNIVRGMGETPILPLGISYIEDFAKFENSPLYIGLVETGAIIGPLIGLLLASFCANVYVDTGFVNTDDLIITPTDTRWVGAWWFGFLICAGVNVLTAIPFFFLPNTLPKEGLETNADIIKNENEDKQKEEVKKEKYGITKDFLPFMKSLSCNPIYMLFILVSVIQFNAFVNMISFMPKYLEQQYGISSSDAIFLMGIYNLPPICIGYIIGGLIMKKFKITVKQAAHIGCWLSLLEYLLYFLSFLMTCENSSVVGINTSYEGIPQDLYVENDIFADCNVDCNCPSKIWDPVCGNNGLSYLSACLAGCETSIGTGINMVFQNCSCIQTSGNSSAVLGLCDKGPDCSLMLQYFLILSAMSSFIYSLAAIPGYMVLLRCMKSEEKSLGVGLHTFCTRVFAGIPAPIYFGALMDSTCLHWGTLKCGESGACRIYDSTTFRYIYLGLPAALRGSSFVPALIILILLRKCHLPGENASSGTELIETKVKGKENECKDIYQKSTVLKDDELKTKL

[15] = system: rat; assay: Rat micronucleus assay; assay type: in vivo
Text: Voxelotor was not genotoxic in the reverse mutation bacterial (Ames) test, rat Comet assay, or rat micronucleus assay.

[16] = target: CYP2C8 (Homo sapiens, UniProt P10632)
[17] = target: CYP2D6 (Homo sapiens, UniProt P10635)
Chain of CYP2D6 (P10635 whole entry): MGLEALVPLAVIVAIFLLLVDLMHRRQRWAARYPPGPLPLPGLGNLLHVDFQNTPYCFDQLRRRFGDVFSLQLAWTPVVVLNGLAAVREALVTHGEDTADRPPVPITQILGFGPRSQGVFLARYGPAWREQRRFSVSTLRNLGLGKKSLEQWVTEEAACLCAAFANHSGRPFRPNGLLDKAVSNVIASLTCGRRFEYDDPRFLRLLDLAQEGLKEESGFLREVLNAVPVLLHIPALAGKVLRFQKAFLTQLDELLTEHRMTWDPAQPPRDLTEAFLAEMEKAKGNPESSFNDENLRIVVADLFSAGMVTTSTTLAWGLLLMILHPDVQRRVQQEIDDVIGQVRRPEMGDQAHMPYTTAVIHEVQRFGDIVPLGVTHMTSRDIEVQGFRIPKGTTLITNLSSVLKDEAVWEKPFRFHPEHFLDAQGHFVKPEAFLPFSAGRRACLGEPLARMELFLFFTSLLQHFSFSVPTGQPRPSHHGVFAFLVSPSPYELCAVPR

[18] = human, oral, 1500 mg, plasma, Voxelotor 1,500 mg
[19] = human, oral, 1500 mg, whole blood, Voxelotor 1,500 mg

T1 sequence (P33261 whole entry): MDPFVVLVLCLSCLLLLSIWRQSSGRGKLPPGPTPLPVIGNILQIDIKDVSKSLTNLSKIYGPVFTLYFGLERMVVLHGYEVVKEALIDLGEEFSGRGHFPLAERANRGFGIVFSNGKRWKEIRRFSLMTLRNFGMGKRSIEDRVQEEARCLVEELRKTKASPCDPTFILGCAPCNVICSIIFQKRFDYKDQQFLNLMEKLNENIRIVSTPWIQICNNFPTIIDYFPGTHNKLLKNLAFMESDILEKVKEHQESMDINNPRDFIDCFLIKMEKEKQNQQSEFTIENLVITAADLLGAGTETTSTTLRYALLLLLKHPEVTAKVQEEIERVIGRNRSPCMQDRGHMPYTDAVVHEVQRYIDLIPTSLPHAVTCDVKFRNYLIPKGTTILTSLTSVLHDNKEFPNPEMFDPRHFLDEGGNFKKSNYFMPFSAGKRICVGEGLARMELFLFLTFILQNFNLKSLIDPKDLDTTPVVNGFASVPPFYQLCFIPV

## CC(C)n1nccc1-c1ncccc1COc1cccc(O)c1C=O [voxelotor, 2-hydroxy-6-((2-(1-isopropyl-1H-pyrazol-5-yl)pyridin-3-yl)methoxy)benzaldehyde]
[1]; healthy subjects, multiple doses of voxelotor 900/600 mg QD
  effect of voxelotor on PK of CYP2C19 probe substrate (omeprazole): no clinically meaningful effect
[1]; human, in vivo
  inhibition of CYP2C19 in vivo: not
[2]
  presence in milk: detected in milk
[3]
  QT interval prolongation: does not prolong QT interval to any clinically relevant extent
[4]; [18]
  AUC(0-t): 246 µg·h/mL
  Cmax: 12.6 µg/mL
[4]; [19]
  AUC(0-t): 3820 µg·h/mL
  Cmax: 179 µg/mL
[4]; human, plasma, oral, 1500 mg, patients with SCD, read-out: terminal elimination half-life, geometric mean (converted)
  half-life: 2130 min
[4]; human, plasma, oral, read-out: apparent volume of distribution of the central compartment
  Vd: 338 L
[4]; human, plasma and whole blood, oral administration, read-out: median Tmax
  Tmax: 2 h
[4]; patients with SCD
  time to steady-state after repeated administration: ≤ 8 days
[4]; plasma
  apparent volume of distribution of the peripheral compartment: 72.2 L
[4]; plasma, Voxelotor 1,500 mg
  Half-life, Geometric Mean (% CV): 35.5 (25) hours
[4]; plasma, patients with SCD
  apparent oral clearance: 6.7 L/h
[4]; single or multiple doses, whole blood, plasma and RBCs
  PK linearity: linear
[5]
  fraction unbound: 0.002
[6]
  enzymes mediating oxidation of voxelotor: mediated primarily by CYP3A4
[7]
  dose and its metabolites excreted in urine: 35.5%
  dose and its metabolites excreted into feces: approximately 62.6%
  dose excreted unchanged in urine: 0.08%
  dose excreted unchanged into feces: 33.3%
[8]
  steady state plasma AUC higher in HbSC vs HbSS genotype patients: 23%
  steady state plasma Cmax higher in HbSC vs HbSS genotype patients: 15%
  steady state whole blood AUC higher in HbSC (n=11) vs HbSS (n=220) genotype patients: 50%
  steady state whole blood Cmax higher in HbSC vs HbSS genotype patients: 45%
[9]
  inhibition of BCRP: not an inhibitor
  substrate of BCRP: not a substrate
[10]
  inhibition of OAT1: not an inhibitor
[11]
  inhibition of MATE1: not an inhibitor
[12]
  inhibition of MATE2-K: not an inhibitor
[13]
  inhibition of BSEP: not an inhibitor
  substrate of BSEP: not a substrate
[14]
  substrate of OATP1A2: not a substrate
[15]
  genotoxicity: not genotoxic
[16]
  inhibition of CYP2C8 in vivo: not
[17]
  inhibition of CYP2D6 in vivo: not
